From US20090176888A1, “COMPOSITION COMPRISING PHYTOSPHINGOSINE OR DERIVATIVE THEREOF” (KOREA INSTITUTE OF RADIOLOGICAL & MEDICAL SCIENCES, priority 2003, published 2009)

How the values were obtained:
[1] = test system: human uterine cervical cancer cells; assay: In vivo animal test, tumor size with radiotherapy; set-up: species or system nude mice; settings: for tumor size, compound alone treated group: after 7 days (rapidly increased until 7 days after the treatment); for tumor size, radiation and compound concurrent treated group: as a function of days; for tumor size, concurrent treatment vs radiation or compound alone: with radiation, FIGS. 24 and 25
Procedure: (§1) Nude mice (body weight: about 20 g) were randomized into 4 groups and the femoral region of the nude mice transplanted with human lung cancer cells. Then, tumor volume was allowed to reach a level of […]. One group had untreated cells as a control and a second group had radiation (dose of 20 Gy)-treated cells. A third group was orally administered with 50 mg/kg of an olive oil for one week on a daily basis, followed by radiotherapy (dose of 20 Gy). A fourth group was orally administered with a 50 mg/kg solution of phytosphingosine in an olive oil for one week on a daily basis, followed by radiotherapy (dose of 20 Gy). Tumor volume was measured at intervals of 3 days for 40 days. […] In case of a C8PS alone treated group, the tumor size increased until 10 days after the treatment. […] Meanwhile, tumor growth was suspended at a certain point of time after C8PS alone treatment. It can be seen from this fact that C8PS is useful by itself as an anticancer agent for inhibiting tumor growth.
The animal tests were carried out using nude mice of which the femoral regions were transplanted with human uterine cervical cancer cells in the same manner as the aforementioned animal test using C8PS.

[2] = test system: human lung cancer cells (NCI-H460); assay: Apoptosis test (Sub G1, propidium iodide, flow cytometry); type: cell-based; settings: 5 μg/ml, culture time of 48 hours, FIG. 2
Procedure: Cancer cells as used in the experiment were human lung cancer cells (NCI-H460, Korean Cell Line Bank), human breast cancer cells (MDA-MB-231, American Type Culture Collection (ATCC)), human uterine cervical cancer cells (HeLa, Korean Cell Line Bank), and blood cancer cells (Jurkat, ATCC). These cancer cells were cultured in RPMI 1640 media containing 10% FBS, penicillin, and streptomycin (GIBCO BRL).
The apoptosis tests were carried out at human lung cancer cells, breast cancer cells, uterine cervical cancer cells, and blood cancer cells as follows:
Phytosphingosine or a derivative thereof was dissolved in DMSO. Samples of the resultant solution of different concentration levels (1, 2, 5, 10, 15, 20 μg/ml) were prepared. According to the following treatment schedule, phytosphingosine treated cancer cells were cultured, washed with PBS (phosphate buffered saline), and fixed with 70% ethanol. The fixed cells were again washed with PBS, suspended in PBS, and 1 mg/ml of RNase was added thereto. Then, DNA was stained with 50 μg/ml of propidium iodide fluorescent dye and the change in the Sub G1 was analyzed by flow cytometry (Becton DICKINSON). The Sub G1, a marker of apoptotic cell death, means DNA distribution lower than that in the G1 phase of cell cycle.
(1-1) In order to determine an anticancer effect of phytosphingosine, 5 ml of 10 μg/ml of phytosphingosine was added to respective dishes containing lung cancer cells, breast cancer cells, uterine cervical cancer cells, and blood cancer cells.
(1-2) In order to examine a correlation of an anticancer effect with the phytosphingosine concentration and post-treatment culture time, each 5 ml of 2, 5, 10, and 15 μg/ml of phytosphingosine was added to respective human uterine cervical cancer cell-containing dishes and human breast cancer cell-containing dishes. In addition, each 5 ml of 5, 10, 15, and 20 μg/ml of phytosphingosine was added to respective human lung cancer cell-containing dishes, and each 5 ml of 1, 5, 10, and 20 μg/ml of phytosphingosine was added to respective human blood cancer cell-containing dishes.
(1-3) An anticancer effect of phytosphingosine derivatives was determined in the same manner as mentioned in (1-1) and (1-2) except using 5 μg/ml of C4PS, C6PS, C8PS, and C12PS.

[3] = test system: human uterine cervical cancer cells; assay: Apoptosis test with or without radiation; type: cell-based; settings: 5 μg/ml in combination with radiation, FIG. 17
Procedure: (§2) (1) Each 5 ml of 20 μg/ml of phytosphingosine and derivatives thereof were added to human lung cancer cell-containing dishes. Some cells were cultured without radiation and others were cultured with radiation with dose of 4 Gy. This apoptosis test was carried out in the same manner in the Experiment 1. Specimens used in this apoptosis test are as follows:
(§3) Control (Cont), IR, PS, PS+IR, C4PS, C4PS+IR, C6PS, C6PS+IR, C8PS, C8PS+IR, C12PS, C12PS+IR.
(§4) (2) Apoptosis tests for human blood cancer cells, uterine cervical cancer cells, and breast cancer cells were carried out in the same manner as in the above (1) except using 5 μg/ml of phytosphingosine and derivatives thereof.

[4] = test system: human breast cancer cells; assay: Apoptosis test with or without radiation; type: cell-based; settings: 5 μg/ml in combination with radiation, FIG. 17
Procedure: as §2, §3, §4

[5] = test system: human uterine cervical cancer cells; assay: Colony formation test in combination with radiation; type: cell-based; settings: FIG. 18
Procedure: (§5) Colony formation tests were carried out in human lung cancer cells, breast cancer cells, and uterine cervical cancer cells as follows:
(§6) Respective sphingosine, phytosphingosine, C6PS, and C8PS were dissolved ethanol to produce specimens. About 600 cells (for each cancer) were plated in a dish with a diameter of 60 mm and incubated in a CO2 incubator at 37° C. for a day. Then, the cancer cells were treated with the specimens in combination with radiation and were continuously cultured. When suitable colonies were formed, the cancer cells were fixed with a fixing solution (methanol/acetic acid=3:1) and stained with trypan blue. Then, the number of the colonies was counted and the results were evaluated in a comparative manner.

[6] = test system: human lung cancer cells; assay: as above; type: cell-based; settings: for sensitizer enhancement ratio (SER): in combination with radiation
Procedure: as §5, §6

[7] = test system: human breast cancer cells; assay: as above; type: cell-based; settings: FIG. 18
Procedure: as §5, §6

[8] = test system: human lung cancer cells; assay: In vivo animal test, tumor volume with radiotherapy (20 Gy); set-up: species or system nude mice
Procedure: as §1

[9] = test system: human lung cancer cells; assay: DNA fragmentation (agarose gel electrophoresis); type: cell-based; settings: 20 μg/ml C8PS with radiation, FIG. 20
Procedure: (§7) Human lung cancer cells were cultured in the same manner as in Experiment 1 and injected with 5 ml of 20 μg/ml of C8PS. Then, the DAPI staining and DNA fragmentation were carried out.
DNA fragmentation was carried out as follows:
C8PS-treated human lung cancer cells were dissolved in a lysis buffer (20 mM Tris/HCl, pH 8.0, 0.1 mM EDTA, 1% SDS and 0.5 mg/ml proteinase K) and treated with a mixture of phenol, chloroform, and isoamylalcohol (phenol/chloroform/isoamylalcohol=25:24:1) to thereby give a chromosomal DNA extract. The chromosomal DNA extract was subjected to 1% agarose gel electrophoresis and the resulting DNA fragments were visualized under an UV light.

[10] = test system: human lung cancer cells; assay: DAPI staining (percentage of apoptotic cells); type: cell-based; settings: 20 μg/ml C8PS with radiation
Procedure: as §7
DAPI staining protocol was as follows:
First, a control cell group, a radiation-treated cell group, a C8PS-treated cell group, and a C8PS and radiation concurrent treated cell group were fixed with 4% paraformaldehyde at room temperature for 30 minutes and washed with PBS. 50 ng/ml of a DAPI solution was added to the fixed cell groups and incubated for 30 minutes. Then, the cell groups were again washed with PBS and examined with a fluorescent microscope. Cellular apoptosis is characterized by condensation and fragmentation of cell nuclei. Based on this fact, apoptotic cells were counted in each group. Then, the number of apoptotic cells was divided by the number of total cells to derive the percentage of apoptotic cells in each group.

[11] = test system: human lung cancer cells; assay: Apoptosis test with or without radiation (4 Gy); type: cell-based; settings: 20 μg/ml, FIG. 13
Procedure: as §2, §3

Structure (SMILES) | tumor size, compound alone treated group [1] | tumor size, radiation and compound concurrent treated group [1] | tumor size, concurrent treatment vs radiation or compound alone [1] | apoptotic rate [2] [%] | enhancement of radiosensitizing effect [3] | enhancement of radiosensitizing effect [4] | sensitizer enhancement ratio (SER) [5] | sensitizer enhancement ratio (SER) ([6]; FIG. 12) | sensitizer enhancement ratio (SER) [7] | tumor volume, concurrent treatment vs radiation or C8PS alone ([8]; 50 mg/kg oral daily for one week then radiotherapy 20 Gy, FIG. 22) | size of initial tumor, radiation and C8PS concurrent treated group ([8]; 50 mg/kg oral daily for one week then radiotherapy 20 Gy, FIG. 23) | tumor size, C8PS alone treated group ([8]; after the 10th day after treatment (increased until 10 days), FIG. 23) | chromosomal DNA fragmentation, concurrent treatment vs radiation or C8PS alone [9] | radiosensitivity ([6]; FIG. 12) | increase of radiosensitivity relative to Taxol ([6]; at LD50 of human lung cancer cells, FIG. 14B) [%] | increase of apoptotic rate, concurrent treatment vs radiation alone ([6]; radiation at LD50 (number of colonies reduced to 50% by radiation alone), FIG. 14A) | apoptotic rate, concurrent treatment vs radiation or C8PS alone ([10]; FIG. 19) | increase of apoptotic rate, concurrent treatment vs radiation or C8PS alone ([10]; as a function of time, FIG. 21) [%] | apoptotic effect of concurrent application with radiation [11]
CCCCCCCCCCCCCC[C@@H](O)[C@@H](O)[C@H](CO)NC(=O)CCC [C4PS, N-butanoyl phytosphingosine] | slowly increased | showed little changes | significant reduction in tumor size | ~100 | excellent | excellent |  |  |  |  |  |  |  |  |  |  |  |  | 
CCCCCCCCCCCCCC[C@@H](O)[C@@H](O)[C@H](CO)NC(=O)CCCCC [C6PS, N-hexanoyl phytosphingosine] | slowly increased | showed little changes | significant reduction in tumor size | ~100 | excellent | excellent | 2.67 | 1.6 | 2.40 |  |  |  |  |  |  |  |  |  | 
CCCCCCCCCCCCCC[C@@H](O)[C@@H](O)[C@H](CO)NC(=O)CCCCCCC [C8PS, N-octanoyl phytosphingosine] |  |  |  |  |  |  |  | 2 |  | significantly reduced | maintained or reduced | showed little changed | remarkably increased | excellent radiosensitivity | ≥ 20 | about 30% | higher apoptotic rate | ≥ 20 | excellent apoptotic effect
CCCCCCCCCCCCC/C=C/[C@@H](O)[C@@H](N)CO [sphingosine] |  |  |  |  |  |  |  | 1.10 |  |  |  |  |  |  |  |  |  |  | 
